The values below are quoted from earlier work in US20120101124A1, “1,2,4-OXADIAZOL DERIVATIVES, THEIR PHARMACEUTICAL COMPOSITIONS AND THEIR USE AS SPHINGOSINE 1-PHOSPHATE 1 RECEPTOR AGONISTS” (GLAXO GROUP LIMITED, priority 2009, published 2012).

One data set concerns circulating lymphocytes. The following applies: animals and man.
For data set [1] the following is noted: clinical studies.

Structures are written as SMILES.

As for `CCCCCCCCc1ccc(CCC(N)(CO)CO)cc1` [FTY720], the “effect on circulating lymphocytes” value with circulating lymphocytes is “reduce circulating lymphocytes in animals and man”. Further, the bradycardia on treatment entry in data set [1] was “bradycardia in the first 24 hours of treatment”.
